What was measured:
Assay type in all cases: cell-based
Aspergillus niger = assay: Minimal inhibitory concentration, spore culture; conditions: mold
Candida albicans = assay: Minimal inhibitory concentration, macrodilution method; conditions: yeast; 24 h, 30° C.
Source text: (§1) For the determination of the minimal inhibitory concentration (MIC) of nanosilver against different bacteria and fungi, i.e. the lowest concentration at which these micro-organisms show an inhibition of growth, the following protocol was used: • Journal of Antimicrobial Chemotherapy Supplement (JAC [2001] 48, Suppl. S1), March 2006, Chapter 2: Determination of minimal inhibitory concentrations; Macrodilution method.
(§2) Cultures of Staphylococcus aureus, Pseudomonas aeruginosa and Candida albicans were grown overnight and diluted to 150×10^6 bacterial cells or 5×10^6 yeast cells per mL (according to an optical density measured at 610 nm). These stock solutions were further diluted 500 times, […]. The final culture was then two times diluted in the final microtiter plate, resulting in a final dilution of 1:1000.
(§3) The test compound was diluted into the microtiter cultures at a concentration range from 0.5 to 470 mg/L Ag. The microtiter plates were then incubated at 30° C. on a shaker. After 24 h the plates were taken out of the incubation oven and growth was compared with the control row, both visually and by OD measurement at 610 nm.

Pseudomonas aeruginosa = assay: as above; conditions: Gram negative; 24 h, 30° C.
Source text: as §1, §2, §3

Staphylococcus aureus = assay: as above; conditions: Gram positive; 24 h, 30° C.
Source text: as §1, §2, §3

O=[N+]([O-])[O-].[Ag+] [silver nitrate]
Minimal Inhibitory Concentration (MIC) Aspergillus niger (Aspergillus niger): 25 mg Ag/L | Minimal Inhibitory Concentration (MIC) Candida albicans (Candida albicans): 12.5 mg Ag/L | Minimal Inhibitory Concentration (MIC) Pseudomonas aeruginosa (Pseudomonas aeruginosa): 6.3 mg Ag/L | Minimal Inhibitory Concentration (MIC) staphylococcus aureus (Staphylococcus aureus): 12.5 mg Ag/L

From US8454986B2, “Silver nanoparticles with specific surface area and a method for producing them” (Janssen Pharmaceutica N.V., priority 2008, dated 2013)
